Experiments:
[1] = test system: human PBMCs activated with anti-CD3/anti-CD28; assay: PBMC:MSC co-culture ex vivo assay, FACS analysis (cell composition)
Method: (§1) For ex vivo analysis, freshly isolated human PBMCs, pooled from three donors, were activated with anti-CD3/anti-CD28 at 10 μg/ml and 5 μg/ml respectively in presence of MSCs ex vivo for 24-72 hours. Following activation, cells were analyzed for effects on cellular composition and cell proliferation using CFSE. In addition, supernatants were analyzed for cytokine levels using Luminex.
(§2) In this example, Peripheral Blood Mononuclear Cells (PBMCs) were isolated from leucocyte concentrate from three different donors (acquired from Blodcentralen, Lunds Universitetssjukhus, Lund, Sweden) through gradient centrifugation using Ficoll. Red blood cells (RBCs) were lysed using lysis buffer (3 min, RT), cells were washed and the isolated PBMCs were pooled. Cell concentration was determined using a Scepter cell counter (Millipore Merck, MA, USA). Cells were diluted to 1×10^7 cells/ml in PBS. Pooled PBMCs were split into 2 different tubes. Pool one was stained with CFSE at 5 μM for 5 minutes (dark, RT). CFSE stained cells were washed with an equal volume of FBS to stop the reaction and washed again with PBS. Pool 2 was left in PBS.
(§3) All cells (PBMCs and MSCs) were diluted in two different cell culture media (M3 and M4) at 2*10^6 cells/ml. Media was supplemented with anti-CD28 at 5 μg/ml. Cells were added to anti-CD3 (10 μg/ml) coated U bottom cell culture plates according to layout below, 200 μl/well in different PBMC:MSC ratios (1:10, 1:5, 1:2.5, 1:0 and 0:1).
(§4) Included were also controls (stimulated and unstimulated PBMCs) and two reference drugs, e.g., cyclosporine (CsA) and Prednisolone. When plating controls, cells were spun down and diluted in media 3 or 4 at 4*10^6 cells/ml. 100 μl PBMCs were added per well. CsA was added at a final concentration of 10 μg/ml and Prednisolone was added at a final concentration of 125 nM. Medium was added to unstimulated control wells. Control cells (AD-MSC) were also analyzed. Cells were incubated for 24-72 hours at 37° C., 5% CO2.
Following 24 hours of incubation, cells in FACS/Luminex plates were stained with CD73, CD4, CD8, CD80, CD206, CD163 and PD-1. Briefly, cells were transferred to V bottom plates and centrifuged at 360×g for 2 min. Supernatant was transferred to a storage plate and put in −20° C. until analysis using Luminex. Cells were washed in PBS, centrifuged at 360×g for 2 min at 4° C. Supernatant was flicked off and surface markers were added. Cells were incubated at +4° C. for 20 minutes (dark). After incubation, cells were washed 1× in PBS, centrifuged at 360×g for 2 min at 4° C. Cells were resuspended in PBS and analyzed using the Attune Nxt flow cytometer. Compensation was performed using beads—AbC Total Compensation capture beads and negative beads. Since compensation was done using beads, FSC and SSC were changed before analyzing samples and adjusted to suit cells.

[2] = test system: human PBMCs activated with anti-CD3/anti-CD28; assay: PBMC:MSC co-culture ex vivo assay, FACS analysis (CFSE proliferation)
Method: as §1, §2, §3, §4
To continue with this example, after 72 hours of incubation, CFSE stained cells were stained with CD4, CD8, CD80, CD206 and CD163. Briefly, cells were transferred to V bottom plates, centrifuged at 360×g for 2 min. Cells were washed in PBS, centrifuged at 360×g for 2 min at 4° C. Supernatant was flicked off and surface markers were added. Cells were incubated at +4° C. for 20 minutes. After incubation, cells were washed 1× in PBS, centrifuged at 360×g for 2 min at 4° C. Cells were resuspended in PBS and analyzed using flow cytometry. Compensation was performed using beads—AbC Total Compensation capture beads and negative beads. Since compensation was done using beads, FSC and SSC were changed before analyzing samples and adjusted to suit cells.
The inhibitory effect was calculated according to the two formulas below: […]

[3] = CFSE plates, 72 hours of incubation

SMILES: C[C@]12C=CC(=O)C=C1CC[C@@H]1[C@@H]2[C@@H](O)C[C@@]2(C)[C@H]1CC[C@]2(O)C(=O)CO [Prednisolone]
- % cytotoxic T cells (CD8+ lymphocytes) [1]: lower levels
- expression level of CD73+M1 ([1]; 24 hours of incubation): lower expression level
- expression level of CD73+M2 ([1]; 24 hours of incubation): lower expression level
- % T helper cells (CD4+ lymphocytes) ([1]; 24 hours of incubation, versus control): higher levels
- macrophage polarization (shift towards M2) ([1]; assay controls, cell composition): shift towards M2
- effect on cytotoxic T cells [2]: no effect
- effect on M1 expression level [2, 3]: no effect
- effect on M2 expression level [2, 3]: no effect
- effect on T helper cells [2, 3]: no effect
